The values below come from publication PMC3412620 (PLoS ONE, 2012).

The target in series [1] is T1, human pyridoxal kinase (hPL kinase) (Homo sapiens, UniProt O00764).
T1 construct: gene PDXK; wild-type hPL kinase
T1 sequence (O00764 1-312): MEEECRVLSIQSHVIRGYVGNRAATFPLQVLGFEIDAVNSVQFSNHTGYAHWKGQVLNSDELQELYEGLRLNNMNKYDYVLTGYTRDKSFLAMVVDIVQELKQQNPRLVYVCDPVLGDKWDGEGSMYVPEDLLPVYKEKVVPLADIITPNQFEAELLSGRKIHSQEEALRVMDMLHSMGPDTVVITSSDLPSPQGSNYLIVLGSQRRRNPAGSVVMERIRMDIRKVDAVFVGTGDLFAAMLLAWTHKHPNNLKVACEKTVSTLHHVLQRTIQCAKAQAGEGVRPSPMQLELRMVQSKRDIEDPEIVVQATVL
Description: crystal structure ([…] Å, ternary with ginkgotoxin). Type of series: binding.

The target in series [2] is T1, human pyridoxal kinase (hPL kinase). Description: crystal structure ([…] Å), […] occupancy; density broken between ring and phosphate. It counts as binding.
The target is the same in series [3]. Description: percentage inhibition at […], spectrophotometric assay. Type of series: biochemical.
Series [4] shares this target. Put plainly: spectrophotometric kinetic assay (PL to PLP, […] nm). It counts as biochemical.
Substrate in series [5]: Cc1ncc(CO)c(C=O)c1O
Put plainly: spectrophotometric steady-state kinetics with purified enzyme (Km). Type of series: biochemical, Homo sapiens. The following applies: MgATP PL substrate site.

In the case of `Nc1ncnc2c1ncn2[C@@H]1O[C@H](COP(=O)(O)OP(=O)(O)OP(=O)(O)O)[C@@H](O)[C@H]1O` [ATP], the “crystal structure (2.15 Å, ternary with ginkgotoxin)” value in series [1] was “We observed bound MgATP and ginkgotoxin (Fig. 4A–C) at both subunit active sites”.

With `COCc1c(COP(=O)(O)O)cnc(C)c1O` [GIP, ginkgotoxin phosphate], in series [2], the “crystal structure (2.15 Å), 40% occupancy; density broken between ring and phosp” value is “We also observed what appears to be the phosphorylated product of ginkgotoxin bound at the PL sites”.

Usually inhibition stands for how much of the control response was suppressed. Low values mean a response near the control, high ones a response far below the control. In the case of `Cn1c(=O)c2c(ncn2C)n(C)c1=O` [caffeine], the inhibition at 100 µM in series [3] is 21%.

As a reminder, the Ki is a measure of affinity in units of concentration, obtained from inhibition or displacement. As for `CCCn1c(=O)[nH]c(=O)c2[nH]cnc21` [enprofylline], in series [4], the inhibition constant Ki turned out to be 228 µM.

In series [4], `Nc1nnc(-c2cccc(Cl)c2Cl)c(N)n1` [lamotrigine] registered a Ki of 56 µM.

Consider `Cn1cnc2c1c(=O)[nH]c(=O)n2C` [theobromine], for which the inhibition at 100 µM in series [3] was 22%.

B1: human pyridoxal kinase (hPL kinase) (Homo sapiens) (protein)
chain: T1 sequence (O00764 1-312)
notes: wild-type hPL kinase
One may read the Km as the concentration of substrate that gives half-maximal velocity. B1: the Michaelis-Menten constant (Km) in series [5] came out at 58 µM.
